Measurements as given in patent publication US4297369A, “Certain muscle relaxant 3-methyl-2-benzofuran acetamides” (Kyowa Hakko Kogyo Co., Ltd., priority 1979, dated 1981).
Counter-ions that a name gives are not always drawn.

Tests used:
[1] = tested on: acetic acid writhing in mice; assay: Analgesic activity: acetic acid writhing; type: in vivo, male dd mice; settings: number of writhes vs control
Protocol: Groups of 10 male dd mice weighing 19-21 g were used. One hr. after drug administration, 0.2 ml of a 0.7% aqueous solution of acetic acid was injected intraperitoneally. Ten min. after acetic acid injection, the number of writhes was counted for each mouse during the following 10 min. Drug activity is expressed as the percent inhibition of the number of writhes in the control group.

[2] = tested on: tonic extensor seizures in mice (strychnine); assay: Strychnine convulsion test; type: in vivo, male dd mice; settings: 1 hr before strychnine 2 mg/kg s.c.
Protocol: (§1) Anticonvulsant activity was determined according to the following three methods.
Groups of 10 male dd mice weighing 19-21 g were used. The drugs were orally administered and one hr. later, strychnine was injected subcutaneously at 2 mg/kg. Drug activity is expressed as the percent blocking tonic extensor seizures.

[3] = tested on: carrageenin hind paw edema in rats; assay: Anti-inflammatory activity: carrageenin paw edema; type: in vivo, male Wistar rats; settings: edema 3 hr after carrageenin, vs control
Protocol: Groups of 5 male Wistar rats weighing 130-150 g were used. One hr. after drug administration, 0.1 ml of a 1% aqueous suspension of carrageenin was injected into the plantar surface of the right hind paw. The volume of the injected paw was measured before and 3 hr. after carrageenin injection by mercury displacement. Drug activity is expressed as the percent difference between the test and control groups' edema.

mice [4] = assay: Muscle relaxant activity: slant test; type: in vivo, male dd mice
Protocol: (§2) Groups of 5 male dd mice weighing 19-21 g were used. The mice which remained for a period of 3 min. on a 3 cm diameter rod rotating at 5 r.p.m. were selected and tested to determine the muscle relaxant activity at 1, 2 and 4 hr. after drug administration. The methods employed are as follows.
Each mouse was mounted on a 45°-inclined wire netting to examine whether it fell off or not.
(§3) In each test, the compound was considered to have the muscle relaxant activity when the mice fell off.

mice [5] = assay: Muscle relaxant activity: traction test; type: in vivo, male dd mice
Protocol: as §2
Forefeet of each mouse were placed on a wire to examine whether it fell off or not.
as §3

mice [6] = assay: Muscle relaxant activity: rotating rod test; type: in vivo, male dd mice
Protocol: as §2
Each mouse was mounted on a rotating rod to examine whether it fell off or not within 2 min.
as §3

[7] = tested on: clonic seizures in mice (pentetrazol); assay: Pentetrazol convulsion test; type: in vivo, male dd mice; settings: 1 hr before pentetrazol 120 mg/kg s.c.
Protocol: as §1
Groups of 10 male dd mice weighing 19-21 g were used. The drugs were orally administered and one hr. later, pentetrazol was injected subcutaneously at 120 mg/kg. Drug activity is expressed as the percent blocking clonic seizures.

[8] = Acute toxicity, oral, mice; settings: mouse, in vivo, p.o., 7 days mortality
Protocol: (§4) Male dd mice weighing 19-21 g and male Wistar rats weighing 170-190 g were used in groups of 3-6 animals. The drugs were suspended in a 0.3% carboxymethyl cellulose solution and administered orally. […] As the reference compound, benzydamine.HCl was dissolved in water and administered orally. (In Example, 6, 7 and 8, the drugs and benzydamine. HCl were also administered in the same manner.

[9] = tested on: tonic extensor seizures in mice (electroshock); assay: Maximal electroshock convulsion test; type: in vivo, male dd mice; settings: 100 mg/Kg p.o., 1 hr before shock; blocking tonic extensor seizures
Protocol: as §1
Groups of 10 male dd mice weighing 22-24 g were used. The drugs were orally administered and one hr. later, the mice were subjected to an electric current (2000 V, 50 mA) for 0.2 sec. through corneal electrodes. Drug activity is expressed as the percent blocking tonic extensor seizures.

[10] = Acute toxicity, oral, rats; settings: rat, in vivo, p.o., 7 days mortality
Protocol: as §4

[11] = 300 mg/kg p.o., 1 hr after administration
[12] = 300 mg/kg p.o., 2 hr after administration
[13] = 300 mg/kg p.o., 4 hr after administration
[14] = 200 mg/kg p.o., 1 hr after administration
[15] = 200 mg/kg p.o., 2 hr after administration
[16] = 200 mg/kg p.o., 4 hr after administration

COc1ccc2oc(CC(=O)N(C)C)c(C)c2c1 [A, 2-dimethylcarbamoylmethyl-3-methyl-5 methoxybenzo[b]furan]
Analgesic Activity, % Inhibition ([1]; 150 mg/Kg p.o.): 83.6% | % Inhibition, Strychnine Convulsion Test ([2]; 300 mg/Kg p.o.): 60% | Anti-inflammatory Activity, % Inhibition ([3]; 300 mg/Kg p.o.): 23.3% | No. of falling mice/five tested mice, slant test (mice [4]; [11]): 3 mice/five tested mice | No. of falling mice/five tested mice, slant test (mice [4]; [12]): 1.5 mice/five tested mice | No. of falling mice/five tested mice, slant test (mice [4]; [13]): 0 mice/five tested mice | No. of falling mice/five tested mice, traction test (mice [5]; [11]): 2 mice/five tested mice | No. of falling mice/five tested mice, traction test (mice [5]; [12]): 2 mice/five tested mice | No. of falling mice/five tested mice, traction test (mice [5]; [13]): 0 mice/five tested mice | No. of falling mice/five tested mice, rotating rod test (mice [6]; [11]): 5 mice/five tested mice | No. of falling mice/five tested mice, rotating rod test (mice [6]; [12]): 3 mice/five tested mice | No. of falling mice/five tested mice, rotating rod test (mice [6]; [13]): 1 mice/five tested mice | % Inhibition, Pentetrazole Convulsion Test ([7]; 150 mg/Kg p.o.): 40% | LD50 at 168 h [8]: > 1000 mg/kg | % Inhibition, Maximal Electroshock Test [9]: 30%

Cc1ccc2oc(CC(=O)N(C)C)c(C)c2c1 [B, 2-dimethylcarbamoylmethyl-3,5-dimethylbenzo[b]furan]
Analgesic Activity, % Inhibition ([1]; 150 mg/Kg p.o.): 24.0% | % Inhibition, Strychnine Convulsion Test ([2]; 300 mg/Kg p.o.): 88% | Anti-inflammatory Activity, % Inhibition ([3]; 300 mg/Kg p.o.): 10.2% | No. of falling mice/five tested mice, slant test (mice [4]; [11]): 5 mice/five tested mice | No. of falling mice/five tested mice, slant test (mice [4]; [12]): 4 mice/five tested mice | No. of falling mice/five tested mice, slant test (mice [4]; [13]): 0 mice/five tested mice | No. of falling mice/five tested mice, traction test (mice [5]; [11]): 5 mice/five tested mice | No. of falling mice/five tested mice, traction test (mice [5]; [12]): 5 mice/five tested mice | No. of falling mice/five tested mice, traction test (mice [5]; [13]): 0 mice/five tested mice | No. of falling mice/five tested mice, rotating rod test (mice [6]; [11]): 5 mice/five tested mice | No. of falling mice/five tested mice, rotating rod test (mice [6]; [12]): 5 mice/five tested mice | No. of falling mice/five tested mice, rotating rod test (mice [6]; [13]): 0 mice/five tested mice | % Inhibition, Pentetrazole Convulsion Test ([7]; 150 mg/Kg p.o.): 90% | LD50 at 168 h [8]: > 3000 mg/kg | % Inhibition, Maximal Electroshock Test [9]: 80% | LD50 at 168 h [10]: > 3000 mg/kg

CN(C)CCCOc1nn(Cc2ccccc2)c2ccccc12 [Benzydamine . HCl, reference compound]
Analgesic Activity, % Inhibition ([1]; 400 mg/Kg p.o.): 95.2% | % Inhibition, Strychnine Convulsion Test ([2]; 100 mg/Kg p.o.): 70% | Anti-inflammatory Activity, % Inhibition ([3]; 400 mg/Kg p.o.): 20.9% | No. of falling mice/five tested mice, slant test (mice [4]; [14]): 2 mice/five tested mice | No. of falling mice/five tested mice, slant test (mice [4]; [15]): 1 mice/five tested mice | No. of falling mice/five tested mice, slant test (mice [4]; [16]): 0 mice/five tested mice | No. of falling mice/five tested mice, traction test (mice [5]; [14]): 0 mice/five tested mice | No. of falling mice/five tested mice, traction test (mice [5]; [15]): 0 mice/five tested mice | No. of falling mice/five tested mice, traction test (mice [5]; [16]): 0 mice/five tested mice | No. of falling mice/five tested mice, rotating rod test (mice [6]; [14]): 4 mice/five tested mice | No. of falling mice/five tested mice, rotating rod test (mice [6]; [15]): 2 mice/five tested mice | No. of falling mice/five tested mice, rotating rod test (mice [6]; [16]): 0 mice/five tested mice | % Inhibition, Pentetrazole Convulsion Test ([7]; 200 mg/Kg p.o.): 0% | LD50 at 168 h [8]: 500 to 1000 mg/kg | % Inhibition, Maximal Electroshock Test [9]: 100% | LD50 at 168 h [10]: > 1500 mg/kg

Cc1c(CC(=O)N(C)C)oc2ccc(-c3ccccc3)cc12 [C, 2-dimethylcarbamoylmethyl-3-methyl-5-phenylbenzo[b]furan]
Analgesic Activity, % Inhibition ([1]; 150 mg/Kg p.o.): 48.4% | % Inhibition, Strychnine Convulsion Test ([2]; 300 mg/Kg p.o.): 70% | Anti-inflammatory Activity, % Inhibition ([3]; 300 mg/Kg p.o.): 20.4% | No. of falling mice/five tested mice, slant test (mice [4]; [11]): 1.5 mice/five tested mice | No. of falling mice/five tested mice, slant test (mice [4]; [12]): 1.5 mice/five tested mice | No. of falling mice/five tested mice, slant test (mice [4]; [13]): 0 mice/five tested mice | No. of falling mice/five tested mice, traction test (mice [5]; [11]): 2 mice/five tested mice | No. of falling mice/five tested mice, traction test (mice [5]; [12]): 3 mice/five tested mice | No. of falling mice/five tested mice, traction test (mice [5]; [13]): 0 mice/five tested mice | No. of falling mice/five tested mice, rotating rod test (mice [6]; [11]): 3 mice/five tested mice | No. of falling mice/five tested mice, rotating rod test (mice [6]; [12]): 3 mice/five tested mice | No. of falling mice/five tested mice, rotating rod test (mice [6]; [13]): 0 mice/five tested mice | % Inhibition, Pentetrazole Convulsion Test ([7]; 150 mg/Kg p.o.): 30% | LD50 at 168 h [8]: > 1000 mg/kg | % Inhibition, Maximal Electroshock Test [9]: 100%

Cc1c(CC(=O)N(C)C)oc2ccc(F)cc12 [D, 2-dimethylcarbamoylmethyl-3-methyl-5-fluorobenzo[b]furan]
Analgesic Activity, % Inhibition ([1]; 150 mg/Kg p.o.): 32.9% | % Inhibition, Strychnine Convulsion Test ([2]; 300 mg/Kg p.o.): 57% | Anti-inflammatory Activity, % Inhibition ([3]; 300 mg/Kg p.o.): 31.2% | No. of falling mice/five tested mice, slant test (mice [4]; [11]): 4.5 mice/five tested mice | No. of falling mice/five tested mice, slant test (mice [4]; [12]): 4.5 mice/five tested mice | No. of falling mice/five tested mice, slant test (mice [4]; [13]): 1 mice/five tested mice | No. of falling mice/five tested mice, traction test (mice [5]; [11]): 5 mice/five tested mice | No. of falling mice/five tested mice, traction test (mice [5]; [12]): 5 mice/five tested mice | No. of falling mice/five tested mice, traction test (mice [5]; [13]): 1 mice/five tested mice | No. of falling mice/five tested mice, rotating rod test (mice [6]; [11]): 5 mice/five tested mice | No. of falling mice/five tested mice, rotating rod test (mice [6]; [12]): 5 mice/five tested mice | No. of falling mice/five tested mice, rotating rod test (mice [6]; [13]): 2 mice/five tested mice | % Inhibition, Pentetrazole Convulsion Test ([7]; 150 mg/Kg p.o.): 80% | LD50 at 168 h [8]: > 1000 mg/kg | % Inhibition, Maximal Electroshock Test [9]: 85%
